Laboratory results taken from article PMC9833666, “Designing and identifying β-hairpin peptide macrocycles with antibiotic potential” (Science Advances, 2023).
Bridge positions count the residues as written; N and C are the ends. Peptide text beside a SMILES is read from it.

Tested on: Escherichia coli W3110
Type: cell-based
Conditions: for Ec W3110 MIC MH: E. coli W3110, MH medium; for Ec W3110 MIC RPMI: E. coli W3110, RPMI medium

Ec W3110 MIC MH	Ec W3110 MIC RPMI	W3110 MIC MH	W3110 MIC RPMI	W3110 MIC	SMILES
16 µg/mL	16 µg/mL	16 µg/mL	16 µg/mL		CC[C@H](C)[C@@H]1NC(=O)[C@H](CCCNC(=N)N)NC(=O)[C@H](C(C)C)NC(=O)[C@@H](N)CSSC[C@@H](C(=O)O)NC(=O)[C@H](C(C)C)NC(=O)[C@H](CCC(N)=O)NC(=O)[C@H](CC(C)C)NC(=O)[C@H]([C@@H](C)O)NC(=O)[C@H](C(C)C)NC(=O)[C@H](CCCCN)NC(=O)[C@H](C(C)C)NC(=O)[C@H](CCCNC(=N)N)NC(=O)[C@H](CCCNC(=N)N)NC(=O)[C@H](CCCNC(=N)N)NC(=O)[C@H](CCCNC(=N)N)NC(=O)[C@H](CC(N)=O)NC(=O)[C@H](CC(N)=O)NC(=O)[C@H](CC(C)C)NC(=O)[C@H](CCCNC(=N)N)NC1=O [SySA-80] (H-CVRIRLNNRRRRVKVTLQVC-OH; disulfide 1-20; N-terminus and C-terminus assumed)
				>256 µg/mL	CC[C@H](C)[C@@H]1NC(=O)[C@H](CCCNC(=N)N)NC(=O)[C@H](C(C)C)NC(=O)[C@H](CCCNC(=N)N)NC(=O)[C@@H](N)CSSC[C@@H](C(=O)O)NC(=O)[C@H](CCC(=O)O)NC(=O)[C@H](C(C)C)NC(=O)[C@H](CCC(N)=O)NC(=O)[C@H](CC(C)C)NC(=O)[C@H](CCCCN)NC(=O)[C@H](CC(C)C)NC(=O)[C@H](CCCNC(=N)N)NC(=O)CNC(=O)[C@H](CCCNC(=N)N)NC(=O)[C@H](CCCNC(=N)N)NC(=O)[C@H](CC(=O)O)NC(=O)[C@H](CC(=O)O)NC(=O)[C@H](C(C)C)NC(=O)[C@H](CC(N)=O)NC1=O [SyRC-1] (H-CRVRINVDDRRGRLKLQVEC-OH; disulfide 1-20)
32 µg/mL	8 µg/mL	32 µg/mL	8 µg/mL		CC[C@H](C)[C@@H]1NC(=O)[C@H](CCCNC(=N)N)NC(=O)[C@H](C(C)C)NC(=O)[C@@H](N)CSSC[C@@H](C(=O)O)NC(=O)[C@H](C(C)C)NC(=O)[C@H](CCC(N)=O)NC(=O)[C@H](CC(C)C)NC(=O)[C@H](CO)NC(=O)[C@H](C(C)C)NC(=O)[C@H](CCCCN)NC(=O)[C@H](CC(C)C)NC(=O)CNC(=O)[C@H](CCCNC(=N)N)NC(=O)[C@H](CCCNC(=N)N)NC(=O)[C@H](CCCNC(=N)N)NC(=O)[C@H](CC(N)=O)NC(=O)[C@H](CC(N)=O)NC(=O)[C@H](CC(C)C)NC(=O)[C@H](CCCNC(=N)N)NC1=O [SySA-40] (H-CVRIRLNNRRRGLKVSLQVC-OH; disulfide 1-20; N-terminus and C-terminus assumed)
				>256 µg/mL	CC[C@H](C)[C@@H]1NC(=O)[C@H](CCCCN)NC(=O)[C@H](C(C)C)NC(=O)CNC(=O)[C@H](CCCNC(=N)N)NC(=O)[C@H](CCCNC(=N)N)NC(=O)[C@H](CCCNC(=N)N)NC(=O)[C@H](CC(=O)O)NC(=O)[C@H](CC(N)=O)NC(=O)[C@H](CC(C)C)NC(=O)[C@H](CCCNC(=N)N)NC(=O)[C@H]([C@@H](C)CC)NC(=O)[C@H]([C@@H](C)O)NC(=O)[C@H](C(C)C)NC(=O)[C@@H](N)CSSC[C@@H](C(=O)O)NC(=O)[C@H](C(C)C)NC(=O)[C@H](CCC(=O)O)NC(=O)[C@H](C(C)C)NC(=O)[C@H](CO)NC1=O [SyRA-7] (H-CVTIRLNDRRRGVKISVEVC-OH; disulfide 1-20)
